Laboratory results: patent publication US10905683B2, “Compositions and uses of amidine derivatives” (BIOCRYST PHARMACEUTICALS, INC., priority 2014, dated 2021)
Converted amounts (≈) assume the structure as drawn. “And” between values parts separate entries of the source, which are not always exact repeats. Identical values can stand only once. Like-named read-outs stand apart in the source and are kept apart here.

How the values were obtained:
[1] = Further solubility studies in solvents, mixtures and surfactants; type: physicochemical; conditions: thermodynamic from solid
Description: The solubility of the compound of Example 1 in a range of organic solvents, mixtures thereof, and some including surfactants, was measured. […] solubility assays were performed by the sequential addition of the compound of Example 1 to an appropriate organic solvent while stirring vigorously until a precipitate is formed. The resulting suspension is then shaken for 24 hours at room temperature, filtered and the resulting solution was analyzed by appropriate analytical method. Quantitation was performed by comparison of the concentrations of the resulting solution of the compound 1 to a single point calibration curve using a solution of the reference standard. The results are shown in Table 8, in which all percentages are expressed by weight of the total weight of excipients, i.e. excluding the active and the following abbreviations are used: […]

[2] = pKa by UV-metric and potentiometric titration; type: physicochemical
Text: The pKa experiments have been performed by both UV-metric (in aqueous) and potentiometric method (in methanol cosolvents). Nine titrations have been performed for the compound, all from low to high pH (2.0-12.0).

[3] = Absorption enhancement studies in the rat, intragastric dosing, plasma concentration
Description: Based on the solubility data that was reported previously, combinations of solvents were evaluated to study the effect of formulation composition on oral absorption.
Combinations of solvents and surfactants were evaluated in rat, dog and nonhuman primate models at levels appropriate for a potential human oral pharmaceutical product.
The early studies in rats used aqueous dosing solutions.
These formulations included a variety of solvents and co-solvents for evaluation to maximize absorption and form a physicochemically stable liquid. Unless otherwise indicated, the percentages are expressed by weight as a proportion of the total weight of all excipients present in the mixture (i.e. excluding the active ingredient).

[4] = Phase 1 safety and tolerability; type: in vivo, human; conditions: healthy subjects
Description: A two-part, Phase 1, double-blind, placebo-controlled study of the compound of Example 1 was conducted in healthy subjects. Part 1 of the study assessed the safety, tolerability and the pharmacokinetic (PK) and pharmacodynamic (PD) properties of the compound of Example 1 following a single ascending dose. Subjects were enrolled in five sequential cohorts and received the compound of Example 1 (50 mg, 125 mg, 250 mg, 500 mg or 1000 mg; n=6/cohort) or placebo (n=2/cohort) under fasting conditions. To enable a food-effect assessment on exposure, subjects enrolled in Cohort 4 (500 mg or placebo) subsequently received a second dose of the compound of Example 1 following a high-fat breakfast.
Part 2 of the study evaluated the safety, tolerability, PK, and PD of multiple ascending doses of the compound of Example 1. Twelve subjects were administered a 7-day course of the compound of Example 1 (n=10 subjects/cohort received the API and n=2 subjects/cohort received matching placebo) according to the following dose regimens: 100 mg of the compound of Example 1 or placebo every 8 hours (q8h) in Cohort 1; 200 mg of the compound of Example 1 or placebo q8h in Cohort 2; 400 mg of the compound of Example 1 or placebo q8h in Cohort 3 and 800 mg of the compound of Example 1 or placebo q8h in Cohort 4.

[5] = Solubility in surfactant solutions; type: physicochemical
Description: The solubility of the compound of Example 1 in a range of surfactants was measured. Solubility assays were performed by the sequential addition of the compound of Example 1 to an appropriate organic solvent while stirring vigorously until a precipitate is formed. The resulting suspension is then shaken for 24 hours at room temperature, filtered and the resulting solution was analyzed by appropriate analytical method. Quantitation was performed by comparison of the concentrations of the resulting solution of the compound of Example 1 to a single point calibration curve using a solution of the reference standard.

[6] = Solubility with cyclodextrins and co-agents; type: physicochemical; conditions: for solubility: aqueous with cosolvent or surfactant or cyclodextrin, thermodynamic from solid
Description: Additional solubility studies were undertaken using cyclodextrins, including α-cyclodextrin and a polyanionic β-cyclodextrin derivative with a sodium sulfonate salt separated from the lipophilic cavity by a butyl ether or sulfobutylether spacer group) (referred to herein as Captisol) in combination with a variety of co-agents.
Test samples were prepared with the indicated cyclodextrins and the compound of Example 1, both with and without additional agents. The test solutions were sonicated in a Fisher model 55 dismembrator (small probe) at its maximum setting of 5 for 90 seconds. The samples were rotated overnight at room temperature to allow equilibration. Quantitation was performed by comparison of the concentrations of the resulting solution of the compound 1 to a single point calibration curve using a solution of the reference standard.

[7] = rat, intragastric 5 mg/Kg, aqueous dosing solution, individual rats 1-4

Structure (SMILES): C=Cc1cc(C(=O)Nc2ccc(C(=N)N)cc2)c(-c2ccc(C(=O)NCC3CC3)nc2C(=O)O)cc1OC [Example 1, 3-[2-(4-carbamimidoyl-phenylcarbamoyl)-5-methoxy-4-vinyl-phenyl]-6-(cyclopropylmethyl-carbamoyl)-pyridine-2-carboxylic acid]
- solubility at 24 h ([1]; 2.5% SLS in 97.5% PEG400, organic solvent or mixture, 2.5% SLS in 97.5% PEG400, read-out: Example 1 Solubility After 24 hrs): 31300 µg/mL (≈ 60.9 mM)
- solubility at 24 h ([1]; 2.5% SLS in 97.5% PEG600, organic solvent or mixture, 2.5% SLS in 97.5% PEG600, read-out: Example 1 Solubility After 24 hrs): 25900 µg/mL (≈ 50.4 mM)
- solubility at 24 h ([1]; 2.5% SLS in 97.5% PG, organic solvent or mixture, 2.5% SLS in 97.5% PG, read-out: Example 1 Solubility After 24 hrs): > 100000 µg/mL
- solubility at 24 h ([1]; 2.5% SLS/8% EtOH/10% PG in 79.5% PEG600, organic solvent or mixture, 2.5% SLS/8% EtOH/10% PG in 79.5% PEG600, read-out: Example 1 Solubility After 24 hrs): 57300 µg/mL (≈ 112 mM)
- solubility at 24 h ([1]; 6% EtOH/15% glycerin/79% water containing 0.3% Tween80, aqueous with cosolvent or surfactant or cyclodextrin, 6% EtOH/15% glycerin/79% water containing 0.3% Tween80, read-out: Example 1 Solubility After 24 hrs): 300 µg/mL (≈ 0.584 mM)
- solubility at 24 h ([1]; 6% EtOH/15% glycerin/79% water, aqueous with cosolvent or surfactant or cyclodextrin, 6% EtOH/15% glycerin/79% water, read-out: Example 1 Solubility After 24 hrs): 70 µg/mL (≈ 0.136 mM)
- solubility at 24 h ([1]; 8% EtOH/10% PG in 82% PEG600, organic solvent or mixture, 8% EtOH/10% PG in 82% PEG600, read-out: Example 1 Solubility After 24 hrs): 61000 µg/mL (≈ 119 mM)
- solubility at 24 h ([1]; 10% EtOH in 90% PEG400, organic solvent or mixture, 10% EtOH in 90% PEG400, read-out: Example 1 Solubility After 24 hrs): 61400 µg/mL (≈ 120 mM)
- solubility at 24 h ([1]; 10% EtOH in 90% PEG600, organic solvent or mixture, 10% EtOH in 90% PEG600, read-out: Example 1 Solubility After 24 hrs): 61400 µg/mL (≈ 120 mM)
- solubility at 24 h ([1]; 10% EtOH with 90% PG, organic solvent or mixture, 10% EtOH with 90% PG, read-out: Example 1 Solubility After 24 hrs): > 100000 µg/mL
- solubility at 24 h ([1]; 20% PG in 80% PEG400, organic solvent or mixture, 20% PG in 80% PEG400, read-out: Example 1 Solubility After 24 hrs): 52900 µg/mL (≈ 103 mM)
- solubility at 24 h ([1]; 20% PG in 80% PEG600, organic solvent or mixture, 20% PG in 80% PEG600, read-out: Example 1 Solubility After 24 hrs): 52400 µg/mL (≈ 102 mM)
- solubility at 24 h ([1]; PG/PEG mixtures, organic solvent or mixture, some PG/PEG mixtures, read-out: solubility): 50000 to 60000 µg/mL (≈ 97.4 to 117 mM)
- solubility at 24 h ([1]; mixtures of 90% or more propylene glycol, organic solvent or mixture, some mixtures composed of 90% or more propylene glycol, read-out: solubility): > 100000 µg/mL
- solubility at 24 h ([1]; propylene glycol, organic solvent or mixture, Propylene Glycol, read-out: Example 1 Solubility After 24 hrs): > 150000 µg/mL
- solubility at 24 h ([1]; propylene glycol, organic solvent or mixture, propylene glycol (PG), read-out: solubility): 150000 µg/mL (≈ 292 mM)
- pKa ([2]; aqueous (UV-metric), methanol cosolvents (potentiometric), no higher pKa observed by potentiometric method, read-out: higher pKa as reported): > 11
- pKa ([2]; aqueous (UV-metric), methanol cosolvents (potentiometric), no lower pKa observed by potentiometric method, read-out: lower pKa as reported): < 3
- pKa ([2]; aqueous, UV-metric method, aqueous, read-out: lower pKa): 2.31 ± 0.15
- concentration at 0 min ([3]; rat, in vivo, 5 mg/Kg, Plasma concentration, 0 min, intragastric 5 mg/Kg, aqueous dosing solution, individual rats 1-4): 0 ng/mL
- Plasma concentration, 0 min [3, 7]: 0 ng/mL
- Plasma concentration, 30 min [3, 7]: 108 ng/mL and <10 ng/mL and 188 ng/mL and 23 ng/mL
- Plasma concentration, 1 hr [3, 7]: 88 ng/mL and <10 ng/mL and 130 ng/mL and 30 ng/mL
- Plasma concentration, 2 hr [3, 7]: 123 ng/mL and <10 ng/mL and 87 ng/mL and 27 ng/mL
- Plasma concentration, 4 hr [3, 7]: 134 ng/mL and <10 ng/mL and 99 ng/mL and 24 ng/mL
- Plasma concentration, 8 hr [3, 7]: 48 ng/ml and <10 ng/ml (2×) and 30 ng/ml
- Gastrointestinal (GI) absorption ([3]; rats, aqueous dosing solutions): very low or zero
- safety and tolerability ([4]; Part 1 (50-1000 mg single) and Part 2 (100-800 mg q8h, 7 days)): generally safe and well tolerated
- dose-limiting adverse events ([4]; Part 1 and Part 2): no dose-limiting adverse events
- serious adverse events ([4]; Part 1 and Part 2): no serious adverse events
- Saturated concentration of Example 1 ([5]; 3-[(3-Chloamidopropyl)-dimethylamino]-1-propanesulfate 1%): 0.66 mg/mL
- Saturated concentration of Example 1 ([5]; D-alpha-tocopheryl-polyethylene glycol 1000 succinate 12.3% (in PEG 400)): 7.8 mg/mL
- Saturated concentration of Example 1 ([5]; D-alpha-tocopheryl-polyethylene glycol 1000 succinate 20% (in PEG 400)): 20.8 mg/mL
- Saturated concentration of Example 1 ([5]; Lecithin 2% (in water)): 1.2 mg/mL
- Saturated concentration of Example 1 ([5]; Lecithin 4% (in PEG 400)): 3.3 mg/mL
- Saturated concentration of Example 1 ([5]; Lecithin 4% (in water)): 2.2 mg/mL
- Saturated concentration of Example 1 ([5]; Lecithin 10% (in PEG 400)): 10.6 mg/mL
- Saturated concentration of Example 1 ([5]; Lecithin 10% (in water)): 3.1 mg/mL
- Saturated concentration of Example 1 ([5]; Octadecyl amine 1% (in PEG 400)): 7.8 mg/mL and 7.1 mg/mL
- Saturated concentration of Example 1 ([5]; Palmitoyl-carnitine chloride 0.10% (in water)): 0.3 mg/mL
- Saturated concentration of Example 1 ([5]; dioctyl sodium sulfosuccinate 1% in PEG400): 1.72 mg/mL
- Saturated concentration of Example 1 ([5]; sodium lauryl sulphate 1% (in water)): 2.4 mg/mL
- Saturated concentration of Example 1 ([5]; sodium lauryl sulphate 2% (in water)): 4.7 mg/mL
- Saturated concentration of Example 1 ([5]; sodium lauryl sulphate 5% (in water)): 10 mg/mL
- solubility ([6]; Captisol 150 mM with DMSO 10%, Captisol 150 mM, DMSO 10%): 3980 µg/mL
- solubility ([6]; Captisol 150 mM with ethanol 10%, Captisol 150 mM, Ethanol 10%): 3550 µg/mL
- solubility ([6]; Captisol 150 mM with propylene glycol 10%, Captisol 150 mM, Propylene glycol 10%): 3300 µg/mL
- solubility ([6]; Captisol 150 mM with sodium dodecyl sulphate 100 mg, Captisol 150 mM, Sodium dodecyl sulphate 100 mg): 240 µg/mL
- solubility ([6]; Captisol (sulfobutylether β-cyclodextrin) solution, Captisol 150 mM, no co-solvent): 7610 µg/mL
- solubility ([6]; Captisol solution with co-agent, Captisol 150 mM, HPMC E-5 0.25%): 4160 µg/mL
- solubility ([6]; Captisol solution with co-agent, Captisol 150 mM, Polyethylene glycol 400 10%): 5460 µg/mL
- solubility in cyclodextrins ([6]; with and without co-agents): not soluble in cyclodextrins
- solubility ([6]; α-cyclodextrin 150 mM with DMSO 10%, α-cyclodextrin 150 mM, DMSO 10%): 11100 µg/mL
- solubility ([6]; α-cyclodextrin 150 mM with ethanol 10%, α-cyclodextrin 150 mM, Ethanol 10%): 270 µg/mL
- solubility ([6]; α-cyclodextrin 150 mM with propylene glycol 10%, α-cyclodextrin 150 mM, Propylene glycol 10%): 4980 µg/mL
- solubility ([6]; α-cyclodextrin solution with co-agent, α-cyclodextrin 150 mM, HPMC E-5 0.25%): 9950 µg/mL
- solubility ([6]; α-cyclodextrin solution with co-agent, α-cyclodextrin 150 mM, Polyethylene glycol 400 10%): 5000 µg/mL
- solubility ([6]; α-cyclodextrin solution with co-agent, α-cyclodextrin 150 mM, Sodium dodecyl sulphate 100 mg): 10000 µg/mL
- solubility ([6]; α-cyclodextrin solution, α-cyclodextrin 150 mM, no co-solvent): 10000 µg/mL
